Legend:
[1] = target: T1, CMP-N-acetylneuraminate-beta-1,4-galactoside alpha-2,3-sialyltransferase (Rattus norvegicus, UniProt Q02734); experiment: Inhibitory activity evaluated against alpha-2,3-sialyltransferase from rat liver
T1 sequence (Q02734 whole entry): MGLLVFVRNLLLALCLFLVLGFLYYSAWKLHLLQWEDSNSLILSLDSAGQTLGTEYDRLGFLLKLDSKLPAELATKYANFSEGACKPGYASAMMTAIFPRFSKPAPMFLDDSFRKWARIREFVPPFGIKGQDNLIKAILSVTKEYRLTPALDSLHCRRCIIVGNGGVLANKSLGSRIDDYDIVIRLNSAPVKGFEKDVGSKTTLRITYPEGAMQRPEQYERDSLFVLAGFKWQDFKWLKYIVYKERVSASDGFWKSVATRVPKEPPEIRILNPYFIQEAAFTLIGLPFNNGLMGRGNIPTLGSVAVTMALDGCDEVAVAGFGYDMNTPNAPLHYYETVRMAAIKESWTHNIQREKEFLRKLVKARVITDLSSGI

[2] = target: T2, Beta-galactoside alpha-2,6-sialyltransferase 1 (Rattus norvegicus, UniProt P13721); experiment: Inhibitory activity evaluated against alpha-2,6-sialyltransferase from rat liver
T2 sequence (P13721 whole entry): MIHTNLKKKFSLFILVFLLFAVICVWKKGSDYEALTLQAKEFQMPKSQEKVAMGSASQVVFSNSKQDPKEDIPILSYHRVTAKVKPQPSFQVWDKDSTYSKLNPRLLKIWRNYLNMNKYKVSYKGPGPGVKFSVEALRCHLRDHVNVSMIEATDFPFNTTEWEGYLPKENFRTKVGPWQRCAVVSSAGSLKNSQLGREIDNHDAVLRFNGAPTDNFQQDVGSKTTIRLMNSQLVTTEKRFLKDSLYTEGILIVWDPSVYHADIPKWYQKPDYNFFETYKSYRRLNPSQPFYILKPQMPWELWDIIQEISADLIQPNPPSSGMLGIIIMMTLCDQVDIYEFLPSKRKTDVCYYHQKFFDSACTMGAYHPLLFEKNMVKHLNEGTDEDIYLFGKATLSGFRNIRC

Structure (SMILES)	Ki [1] [µM]	Ki [2] [µM]
C[C@H](NP(=O)(O)OC[C@H]1OC(n2ccc(N)nc2=O)[C@H](O)C1O)C(=O)O (single isomer, unassigned)	2300	1700
Nc1ccn(C2O[C@H](COP(=O)(O)N[C@@H](Cc3ccccc3)C(=O)O)C(O)[C@H]2O)c(=O)n1 (single isomer, unassigned)	2300	3800
Nc1ccn(C2O[C@H](COP(=O)(O)NCC(=O)O)C(O)[C@H]2O)c(=O)n1 (single isomer, unassigned)	5300	2400
Nc1ccn(C2O[C@H](COP(=O)(O)N[C@@H](CC(=O)O)C(=O)O)C(O)[C@H]2O)c(=O)n1 (single isomer, unassigned)	5100	2200

The next compounds have a lower Ki [1] than those just listed; values first:

Ki [1] [µM]	Ki [2] [µM]	Structure (SMILES)
300	730	Nc1ccn(C2O[C@H](COP(=O)(O)N[C@@H](Cc3c[nH]c4ccccc34)C(=O)O)C(O)[C@H]2O)c(=O)n1 (single isomer, unassigned)
710	370	Nc1ccn(C2O[C@H](COP(=O)(O)OCC(=O)O)C(O)[C@H]2O)c(=O)n1 (single isomer, unassigned)
65	64	Nc1ccn([C@@H]2O[C@H](COP(=O)(O)O)[C@@H](O)[C@H]2O)c(=O)n1
900	2500	CC(C)C[C@H](NP(=O)(O)OC[C@H]1OC(n2ccc(N)nc2=O)[C@H](O)C1O)C(=O)O (single isomer, unassigned)

Source: ChEMBL document CHEMBL1146629, “Synthesis and evaluation of phosphoramidate amino acid-based inhibitors of sialyltransferases” (Bioorg Med Chem Lett, 2003)
